Consider two molecules from patent EP4775199A1, “DRUG-RELEASING ELECTROACTIVE IMPLANT FOR NERVOUS SYSTEM REPAIR” (priority 2023, dated 2025).

One data set relates to meningeal fibroblasts. The format is cell-based, rat. Particulars: 10 nM SB743921, 48 hours; control almost 90 %. How it is done:
Meningeal fibroblasts were cultured from adult rat dura mater and arachnoid mater in the presence of fetal bovine serum following published procedures (Collazos-Castro JE, Polo JL, Hernández-Labrado […]. Bioelectrochemical Control of Neural Cell Development on Conducting Polymers. Biomaterials 2010;31:9244-9255). […] The behavior of living cells was studied by means of videomicroscopy, capturing images every 30 minutes for 48 hours. In separate cultures, cell proliferation was also studied by means of the incorporation of 5-ethynyl-2'-deoxyuridine (EdU).

Data set [1] can be described thus: Systemic (subcutaneous) administration of SB743921 after spinal cord transection. The format is in vivo, rats. Conditions: rat, in vivo, every 12 hours, starting 12 hours post-injury, at 7 DPI. How it is done: (§1) A spinal transection model in adult male Wistar rats was used. Experimental protocols followed European Commission regulations and Spanish legislation for the protection of experimental animals (86/609/EEC, 32/2007, and 223/1988) and were approved by the Ethical Committee for Animal Experimentation of the Hospital Nacional de Parapléjicos of Toledo, Spain. In summary, animals were anesthetized by intraperitoneal (IP) injection of pentobarbital (50 mg/kg) and xylazine (10 mg/kg), providing supplemental doses of 30% one and a half hours later as needed. There were also administered atropine (0.04 mg/kg, IP) to decrease bronchial secretions, marbofloxacin as a prophylactic antibiotic, and ophthalmic ointment to prevent corneal abrasion. A dorsal laminectomy of the T9-T10 vertebrae, under which the T10 and T11 spinal segments are located, respectively, was performed. A small diagonal cut was made in the dura mater, followed by complete spinal cord transection. After a second more rostral cut, the tissue in between was extirpated leaving a neural tissue gap of about 2 mm (Figure 1A). Bleeding was controlled by introducing a fragment of Espongostan® into the cavity, which was removed once hemostasis was achieved. Durorrhaphy was then performed with simple stitches using 10-0 thread; and finally, the muscles and skin were sutured in layers.
(§2) The same spinal cord transection model described in Example 1 was used, in other words, a 2 mm neural gap was created and the dura mater was sutured without other treatments at the injured site. The drug was dissolved in water at 0.8 mg/ml and administered subcutaneously (SC).
(§3) Neural damage, Fibrosis development, inflammation, and repair responses (axonal growth, glial migration, blood vessel growth) were evaluated by means of immunohistochemical staining for axons (neurofilament, NF, Sigma-Aldrich N0142; serotonin, ImmunoSolution IG1112; tyrosine hydroxylase, TH, Sigma AB152), neuronal somas and their dendrites (microtubule-associated protein, MAP2, Sigma M1406), astroglia (glial fibrillary acidic protein, GFAP, BD Biosciences 556327); pericytes and fibroblasts (PDGFR, Abcam AB32570; type IV collagen, Meridian, T40251R), macrophages and microglia (ED1; Chemicon MAB 1435; isolectin B4, Fisher I21411), and endothelial cells (RECA1, Bio-Rad, MCA970R).

Data set [2] concerns rats with spinal cord transection. The description is as above. Particulars: for Reduction of fibrosis: 7 DPI. The format is in vivo. The method, then:
as §1, §2, §3

For data set [3] the test system is unchanged.
The mark [4] stands for this setting: regimen a: 1 mg/kg subcutaneous, one dose every 24 hours for 2, 4, or 6 days, starting 12 hours post-injury.
The mark [5] stands for this setting: regimen b: 1 mg/kg SC, 5 doses, every 12 hours, starting 12 hours post-injury.
[6] abbreviates: regimen c: 1 mg/kg SC, 4 doses, every 12 hours, starting 24 hours post-injury.
Setting [7] is: regimen e: 1,125 mg/kg SC, 4 doses, every 12 hours, starting 12 hours post-injury.

Entries after “also recorded” stand apart in the source; their conditions may differ.

For `Cc1ccc(C(=O)N(CCCN)[C@@H](c2oc3cc(Cl)ccc3c(=O)c2Cc2ccccc2)C(C)C)cc1` [SB743921], the “cells that incorporated EdU” value with meningeal fibroblasts turned out to be 20%. Moreover, the mortality at 168 h was > 90% in data set [1] (1.125 mg/kg, regimen e: 1,125 mg/kg SC, 4 doses) and > 50% in data set [1] (regimen b: 1 mg/kg SC, 5 doses). Also, in data set [2] (Figure 3, 7 DPI, GFAP and MAP2 labeling, initial gap 2 mm), the neural tissue gap result is given as “less than 500 µm”. The “fibrosis (PDGFR)” value in data set [2] (Figure 3, 7 DPI, regimen not stated) is reported as “partial reduction”. For the same molecule, the Neural tissue damage entry was “Severe spinal atrophy with 6 doses” in data set [2] (rat, in vivo, sc, 1 mg/kg); “Mild microhemorrhages” in data set [2] (setting [5]); “Increases due to inflammation” in data set [2] (setting [6]); “Inconsistent” in data set [2] (setting [7]). Besides, the Systemic adverse effects entry is given as “No detected in the period of survival (7 days post-injury, DPI)” in data set [2] (setting [4]); “Diarrhea, peritonitis” in data set [2] (setting [5]); “Diarrhea, peritonitis” in data set [2] (setting [7]). Further, the Reduction of fibrosis entry is on record as “Slight reduction from the 4th dose” in data set [2] (setting [4]); “partially reduced fibrosis; also recorded: Partial” in data set [2] (setting [5]); “Inconsistent” in data set [2] (setting [6]); “Inconsistent” in data set [2] (regimen d: 1 mg/kg SC, 4 doses, every 12 hours, starting 12 hours post-injury); “Inconsistent” in data set [2] (setting [7]). Besides, in data set [2] (regimen b), the “signs of neurotoxicity in the perilesional tissue” value is reported as “no obvious signs of neurotoxicity”. Further, in data set [2] (regimen b, signs of enterocolitis and bacterial translocation or intestinal perforation), the “animals that had died 7 DPI” value is on record as “Four of the seven”.
In the case of `Cc1ccc(NC(=O)c2ccc(CN3CCN(C)CC3)cc2)cc1Nc1nccc(-c2cccnc2)n1` [imatinib], the “safety (death, adverse effects)” value in data set [3] (imatinib regimen a: 4 doses of 5 mg/kg SC, every 12 hours, starting 12 hours post-injury, with implant and ES) is on record as “completely safe”. Moreover, the “inflammatory cells in the perilesional spinal segments” value in data set [3] (imatinib regimen a: 4 doses of 5 mg/kg SC, every 12 hours, with implant and ES) is “reduced presence of inflammatory cells”. Also, in data set [3] (imatinib regimen b: regimen a and additionally 5 mg/kg everyday until the end of electrostimulation, with implant and ES), the “PDGFR+ residual fibrotic tissue in the injury site” value is given as “practically eliminated”. The “cases with separation of the stumps of the spinal cord” value in data set [3] (imatinib regimen b, with implant and ES) is reported as “two thirds”. Further, in data set [3] (imatinib regimen b, with implant and ES, 14 DPI, remaining one-third of the animals), the “distance between the astrocyte front of the stumps” value is recorded as “about 400 µm”. Also, the “axonal extension and branching” value in data set [3] (implant with ES combined with subcutaneous imatinib versus implant with ES alone) is “significantly increasing axonal extension and branching”.
